Experimental data: patent publication US11230579B2, “Method of treating BCL-2 over-expressing disorders using arts containing a BH3-like domain” (CARMEL-HAIFA UNIVERSITY ECONOMIC CORPORATION LTD., priority 2012, dated 2022)
Where two headings read alike, the source gives them in different places. Residues, ends and D or L forms follow the SMILES beside them. *: point of attachment. Cbz = O=C(OCc1ccccc1)*

Columns and labels:
Bcl-2 [1] = assay: Over-expression of ARTS in COS-7 cells, Bcl-2 levels by Western blot and densitometry; assay type: cell-based; conditions: COS-7 cells transfected with Bcl-2 or Bcl-2 and ARTS, 16 h
Excerpt: For transient transfections jetPEI™ (Polyplus Transfection) and Transfectol (GeneChoice) reagents were used according to the manufacturers' instructions.
To determine whether ARTS promotes apoptosis by regulating the levels of Bcl-2, the inventors first over-expressed ARTS in COS-7 cells. More specifically, COS-7 cell were transiently transfected with ARTS, Bcl-2 or empty vector or co-transfected with both constructs.

Bcl-2 [2] = conditions: different cell lines and mouse embryonic fibroblasts (MEFs), Western blot
Bcl-2 [3] = assay: Myc beads pull-down of ARTS and Bcl-2 in co-transfected COS-7 cells; assay type: binding; conditions: COS-7 cells co-transfected with Bcl-2 and ARTS
Method: COS-7 cells were co-transfected with different constructs as detailed herein. The cells were lysed in RIPA buffer (150 mM NaCl, 50 mM Tris-HCl (pH 8), 1% NP-40, 0.5% deoxycholate acid containing protease inhibitors (mini Complete, Roche)). The samples were left rotating overnight at 4° C. with the anti-Myc-beads (Santa Cruz). Samples were centrifuged at 4000 rpm, 4° C. for 5 min and washed four times in PBS. Proteins were eluted from beads following 5 min of boiling in sample buffer. Proteins were separate on 12.5% SDS-PAGE gel, followed by Western blot analysis.
The mechanism by which ARTS regulates Bcl-2 levels was further tested using a pull-down assay in COS-7 cells which were co-transfected with Bcl-2 and ARTS expression vectors. Pull-down assays were performed using agarose anti-myc beads followed by Western blot analysis using mouse anti-ARTS and anti-Bcl-2 antibodies.

Bcl-2 [4] = assay: IP with anti ARTS Ab after ABT-263 treatment with or without QVD: binding of ARTS to Bcl-2; assay type: cell-based, human; conditions: in the presence of QVD
Method: Co immunoprecipitation was performed as previously described (Gottfried et al., 2004). Briefly, 10 μg of anti-ARTS antibody or 2 μg of anti-Bcl-2 or anti-XIAP antibody were added to the protein lysate and the samples were left rotating overnight at 4° C. On the following day, agarose beads conjugated to protein A/G (Santa Cruz) were added for 4 h. Samples were centrifuged at 4000 rpm, 4° C. for 5 min and washed three times with PBS. Proteins were eluted from beads following 5 min of boiling in sample buffer and separated on 12.5% SDS-PAGE gel, followed by Western blot analysis.
ABT is a known BH3 mimetics antagonist of Bcl-2 that binds the hydrophobic binding groove in Bcl-2 that includes the BH3 domain. […] Addition of QVD was done to examine whether the binding of ARTS to Bcl-2 occurs before initiation of caspase activation. An IP assay using monoclonal mouse anti ARTS Ab followed by Western Blot was performed by using Bcl-2, ARTS and Actin antibodies.

Bcl-W = target: T1, Bcl-W (Homo sapiens, UniProt Q92843); conditions: cited from earlier work
T1 sequence (Q92843 1-193): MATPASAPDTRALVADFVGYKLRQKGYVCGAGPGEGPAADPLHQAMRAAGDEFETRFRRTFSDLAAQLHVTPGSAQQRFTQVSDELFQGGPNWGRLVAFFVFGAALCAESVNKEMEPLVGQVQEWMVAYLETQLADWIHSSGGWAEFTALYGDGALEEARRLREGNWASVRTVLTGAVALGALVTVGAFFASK

[5] = system: acute lymphocytic leukemia; conditions: panel of pediatric tumors; cited from earlier work
solid tumors = conditions: panel of pediatric tumors; cited from earlier work
[6] = system: small cell lung cancer xenographs, acute lymphoblastic leukemia and hematologic tumors; conditions: cited from earlier work
HeLa cells = assay: Induction of apoptosis by ABT-263 (C-PARP, C-Casp3 Western blot); assay type: cell-based, human
Method: (§1) ABT-263 is a Bcl-2 antagonist targeting the BH3 domain and leading to initiation of apoptosis within two hours after treatment. The effect of ABT-263 was studied in HeLa cells and HeLa cells in which ARTS expression was knocked-down using shRNA method (HeLa KD ARTS). HeLa and HeLa KD ARTS cells were treated with different concentrations of ABT-263 at different incubation time points (0, 16 and 24 Hours). Lysates were separated using SDS-PAGE method. To evaluate apoptosis, Western Blot analysis was performed using antibodies recognizing Cleaved-PARP (C-PARP), Cleaved-casp3 (C-Casp3), Bcl-2, ARTS, XIAP and Actin (FIG. 8A).

Bcl-XL = Bcl-XL (Homo sapiens, UniProt Q07817); conditions: cited from earlier work
Chain of Bcl-XL (Q07817 whole entry): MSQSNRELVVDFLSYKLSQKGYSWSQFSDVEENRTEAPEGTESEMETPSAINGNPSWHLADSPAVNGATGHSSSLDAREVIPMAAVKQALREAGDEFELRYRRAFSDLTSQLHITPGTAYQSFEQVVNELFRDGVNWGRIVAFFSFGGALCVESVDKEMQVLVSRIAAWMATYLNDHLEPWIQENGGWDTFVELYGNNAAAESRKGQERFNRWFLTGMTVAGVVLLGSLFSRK

Bcl-2 [7] = conditions: cited from earlier work
HeLa KD ARTS cells = assay: Induction of apoptosis by ABT-263 in ARTS knocked-down cells; assay type: cell-based, human; conditions: ARTS KD HeLa cells (absence of ARTS)
Method: as §1

[8] = system: tumor types with an over expression of Mcl-1; conditions: cited from earlier work
Bcl-2 [9] = assay: Proteasome inhibition in transfected COS-7 cells, Bcl-2 levels; assay type: cell-based; conditions: COS-7 cells transfected with Bcl-2 or Bcl-2 and ARTS, 6 h
Method: For the proteasome inhibition studies the cells were incubated with MG132 (20 μM) for 6 hours.
COS-7 cells transiently transfected with Bcl-2 or co-transfected with Bcl-2 and ARTS constructs were incubated with a potent proteasome inhibitor MG132 for 6 h to evaluate the effect of the ubiquitin-proteasome system (UPS) on Bcl-2 degradation.

Bcl-2 [10] = assay: Functional-structural pull-down assay with anti Bcl2 antibody in transfected HeLa cells; assay type: binding, human; conditions: pull-down with Bcl-2 antibodies
Method: HeLa cells were transiently transfected with Full length ARTS plasmid and 128 amino acids N′ terminus deletion of ARTS plasmid, for 24 hrs. The cells were extracted using RIPA-SDS lysis buffer. Immunoprecipitation was done by incubation of lysates overnight with anti Bcl2 antibody (BD), followed by precipitation done with protein A/G beads (Santa Cruz). Western blot analysis was performed using monoclonal anti ARTS antibody directed against its unique C terminus (Sigma).
In order to identify the Bcl-2 binding domain in ARTS, the inventors examined whether deletion of different fragments of ARTS, namely, the N-terminal 128 amino-acid residues may have an effect. Therefore, pull-down experiments were performed in HeLa cells transfected with either the full length ARTS or a deletion mutant thereof.

Molecule: COc1cc([C@@H]2c3cc4c(cc3[C@@H](O[C@@H]3O[C@@H]5CO[C@@H](C)O[C@H]5[C@H](O)[C@H]3O)[C@H]3COC(=O)[C@H]23)OCO4)cc(OC)c1O [Etoposide]
- Bcl-2 level on treatment (Bcl-2 [1]): further reduction of Bcl-2 level
- Bcl-2 levels upon induction of apoptosis (Bcl-2 [2]): down regulated
- fate of ARTS/Bcl-2 complex upon induction of apoptosis (Bcl-2 [3]): degraded

Molecule: CC1(C)CCC(c2ccc(Cl)cc2)=C(CN2CCN(c3ccc(C(=O)NS(=O)(=O)c4ccc(N[C@H](CCN5CCOCC5)CSc5ccccc5)c(S(=O)(=O)C(F)(F)F)c4)cc3)CC2)C1 [ABT-263, 4-[4-[[2-(4-Chlorophenyl)-5,5-dimethyl-1-cyclohexen-1-yl]methyl]-1-piperazinyl]-N-[[4-[[(1R)-3-(4-morpholinyl)-1-[(phenylthio)methyl]propyl]amino]-3-[(trifluoromethyl)sulfonyl]phenyl]sulfonyl]benzamide]
- binding of ARTS to Bcl-2 after treatment (Bcl-2 [4]; 25 μM, 3 and 24 hours): significant increase in binding of ARTS to Bcl-2
- inhibition of the binding of ARTS to Bcl-2 (Bcl-2 [4]): fails to inhibit
- binding to Bcl-W (Bcl-W): high affinity
- efficacy against acute lymphocytic leukemia [5]: highly significant
- efficacy as a single agent against solid tumors (solid tumors): not effective
- efficacy against tumors [6]: effective
- apoptosis (level of C-PARP and C-Casp3) with increased concentrations (HeLa cells): increased apoptosis
- apoptosis (HeLa cells; 25 μM for 24H): induction of apoptosis
- concentration giving optimal induction of apoptosis (HeLa cells; 24 h): 25 µM
- binding to Bcl-XL (Bcl-XL): high affinity
- binding to Bcl-2 (Bcl-2 [7]): high affinity
- apoptosis (C-PARP and C-Casp3 levels) (HeLa KD ARTS cells): not able to induce apoptosis
- apoptosis (C-PARP and C-Casp3 levels) (HeLa KD ARTS cells; listed as ABT): lower apoptosis rates

Molecule: CN(C)CC[C@H](CSc1ccccc1)Nc1ccc(S(=O)(=O)NC(=O)c2ccc(N3CCN(Cc4ccccc4-c4ccc(Cl)cc4)CC3)cc2)cc1[N+](=O)[O-] [ABT-737, (R)-4-(4-((4′-chloro-[1,1′-biphenyl]-2-yl)methyl)piperazin-1-yl)-N-((4-((4-(dimethylamino)-1-(phenylthio)butan-2-yl)amino)-3-nitrophenyl)sulfonyl)benzamide]
- binding to Bcl-W (Bcl-W): high affinity
- binding to Bcl-XL (Bcl-XL): high affinity
- binding to Bcl-2 (Bcl-2 [7]): high affinity
- effect in tumor types with an over expression of Mcl-1 [8]: no effect

Molecule: CC(C)C[C@@H](C=O)NC(=O)[C@H](CC(C)C)NC(=O)[C@H](CC(C)C)NC(=O)OCc1ccccc1 [MG132] (Cbz-Leu-Leu-Leu-aldehyde)
- Bcl-2 levels during proteasome inactivation (Bcl-2 [9]): accumulation of Bcl-2 levels

B1: 128aa N′del ARTS: deletion mutant of ARTS lacking the N′ terminal 128 amino acid residues (protein)
chain: MVAGESGLGKSTLVNSLFLTDLYRDRKLLGAEERIMQTVEITKHAVDIEEKGVRLRLTIVDTPGFGDAVNNTECWKPVAEYIDQQFEQYFRDESGLNRKNIQDNRVHCCLYFISPFGHGYGPSLRLLAPPGAVKGTGQEHQGQGCH
- binding to Bcl-2 (Bcl-2 [10]): does not bind to Bcl-2
